≈ marks a conversion by molar mass, not a printed value. Read-outs that look alike come from different tables or passages of the source. Non-standard residues stand in square brackets, D forms with d. Residues, ends and D or L forms follow the SMILES beside them. *: point of attachment. Palmitoyl = CCCCCCCCCCCCCCCC(=O)*; Myristoyl = CCCCCCCCCCCCCC(=O)*; Lauroyl = CCCCCCCCCCCC(=O)*
How the values were obtained:
Assay type in all cases: cell-based
[1] = system: Cryptococcus neoformans ATCC MYA-422; test: microbe, parasite or virus in culture; conditions: ATCC MYA-422, pH 7.4; for MIC: read-out: Minimal Inhibitory Concentration, Cyrptococcus neoformans (ATCC MYA-422)
[2] = Cytotoxicity, XTT viability, non-cancer cells; conditions: mouse, non-cancer cell line, 24 h incubation, read-out: LC50, 3T3
Experimental: Prostate cancer cell lines (CL1 and 22RV1; ATCC, USA) were grown in RPMI-1640 supplemented with 10% FCS (Biological Industries, Beit Haemek, Israel). N1H-3T3 mouse fibroblast cell line (ATCC, USA) was grown in DMEM supplemented with 10% bovine serum. To test cytotoxicity against the cancer cells, aliquots of medium containing 1×10^4 cells were distributed into a 96-well plate (Falcon). After one day, the media were replaced with 90 μl of fresh media and 10 μl of a solution containing different concentrations of the peptides. The plate was then incubated for 24 h before adding to each well 50 μl of XTT reaction solution (Biological Industries, Beit Haemek, Israel); viability was determined as previously described (Papo et al., (2003) J. Biol. Chem. 278:21018-23). The LC50 (concentration at which 50% of the cells die) for each peptide was obtained from the dose-dependent cell viability curves.

[3] = system: Aspergillus fumigatus ATCC 26430; test: microbe, parasite or virus in culture
[4] = system: Cryptococcus neoformans ATCC 66031; test: microbe, parasite or virus in culture
In short: (§1)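 MIC = lowest concentration giving 100% growth inhibition by A620 after 24-48 h at 35 °C with agitation. Inoculum: 1×10^4 CFU/ml (pre-mix) in RPMI 1640/0.165 M MOPS; pH 7.4 by default, 5.5 where noted. Peptide as twofold dilution series in water.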

[5] = system: Candida albicans ATCC 10231; test: microbe, parasite or virus in culture
In short: as §1

E. coli D21 = system: E. coli D21
[6] = system: Escherichia coli ATCC 25922
In short: (§2)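 Lipopeptides were serially diluted 2-fold in water and combined with an equal volume of bacterial suspension (1×10^6 CFU/ml) in LB medium, normally at pH 7.4. Plates were incubated 18-20 h at 37° C, absorbance at 600 nm was measured, and the MIC was taken as the concentration fully inhibiting growth.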

[7] = system: Acinetobacter baumannii ATCC 19606
In short: as §2

E. coli ATCC 35218 = conditions: ATCC 35218, pH 7.4
In short: as §2

[8] = system: Pseudomonas aeruginosa ATCC 27853
In short: as §2

[9] = system: Staphylococcus aureus ATCC 6538P
In short: as §2

E. aerogenes ATCC 35029 = conditions: ATCC 35029, pH 7.4
In short: as §2

M. laleus = conditions: Table 3, short lipopeptides; pH 7.4
In short: as §2

[10] = system: methicilin-resistant Staphylococcus aureus (MRSA) ATCC 700698; conditions: ATCC 700698, pH 7.4
In short: as §2

[11] = system: vancomycin-resistant Enterococcus faecium (VRE) ATCC 700221; conditions: ATCC 700221, pH 7.4
In short: as §2

[12] = system: Enterococcus faecalis ATCC 29212; conditions: ATCC 29212, pH 7.4
In short: as §2

[13] = system: Enterobacter cloacae ATCC 49141; conditions: ATCC 49141, pH 7.4
In short: as §2

[14] = Table 3, short lipopeptides, pH 7.4
[15] = ATCC 26430, pH 7.4, read-out: Minimal Inhibitory Concentration, Aspergillus Fomigatus (ATCC 26430)
[16] = ATCC 10231, pH 7.4, read-out: Minimal Inhibitory Concentration, Candida Albicans (ATCC 10231)

## CCCCCCCCCCCC(=O)N[C@H](CC(C)C)C(=O)N[C@@H](CCCCN)C(=O)N[C@@H](CCCCN)C(=O)N[C@H](CC(C)C)C(=O)N[C@H](CC(C)C)C(=O)N[C@@H](CCCCN)C(=O)N[C@@H](CCCCN)C(=O)N[C@H](CC(C)C)C(=O)N[C@H](CC(C)C)C(=O)N[C@@H](CCCCN)C(=O)N[C@@H](CCCCN)C(=O)N[C@H](CC(C)C)C(N)=O [lipopeptide 22, (CH3-(CH2)10-CO-)-D-Leu-Lys-Lys-D-Leu-D-Leu-Lys-Lys-D-Leu-D-Leu-Lys-Lys-D-Leu-NH2] (Lauroyl-[dL]KK[dL][dL]KK[dL][dL]KK[dL]-NH2)
[1]
  Minimal Inhibitory Concentration, C. neoformans ATCC MYA-422: 0.78 µM
[2]
  CC50 at 24 h: 50 µM
[3]; ATCC 26430, pH 5.5, read-out: Minimal inhibitory concentrations, A. Fumig. With serum
  MIC: 100 µM (≈ 165 µg/mL)
[3]; ATCC 26430, pH 5.5, read-out: Minimal inhibitory concentrations, A. Fumig. Without serum
  MIC: 75 µM (≈ 124 µg/mL)
[3]; ATCC 26430, pH 7.4
  Minimal Inhibitory Concentration, A. fumigatus ATCC 26430: 6.25 µM
[3]; ATCC 26430, pH 7.4, read-out: Minimal inhibitory concentrations, A. Fumig. With serum
  MIC: 50 µM (≈ 82.4 µg/mL)
[3]; ATCC 26430, pH 7.4, read-out: Minimal inhibitory concentrations, A. Fumig. Without serum
  MIC: 12.5 µM (≈ 20.6 µg/mL)
[4]; ATCC 66031, pH 5.5, read-out: Minimal inhibitory concentrations, C. Neofor. With serum
  MIC: 1.56 µM (≈ 2.57 µg/mL)
[4]; ATCC 66031, pH 5.5, read-out: Minimal inhibitory concentrations, C. Neofor. Without serum
  MIC: <0.78 µM
[4]; ATCC 66031, pH 7.4, read-out: Minimal inhibitory concentrations, C. Neofor. With serum
  MIC: <0.78 µM
[4]; ATCC 66031, pH 7.4, read-out: Minimal inhibitory concentrations, C. Neofor. Without serum
  MIC: <0.78 µM
[5]; ATCC 10231, pH 5.5, read-out: Minimal inhibitory concentrations, C. Albicans With serum
  MIC: >100 µM
[5]; ATCC 10231, pH 5.5, read-out: Minimal inhibitory concentrations, C. Albicans Without serum
  MIC: 100 µM (≈ 165 µg/mL)
[5]; ATCC 10231, pH 7.4
  Minimal Inhibitory Concentration, C. albicans ATCC 10231: 12.5 µM
[5]; ATCC 10231, pH 7.4, read-out: Minimal inhibitory concentrations, C. Albicans With serum
  MIC: 100 µM (≈ 165 µg/mL)
[5]; ATCC 10231, pH 7.4, read-out: Minimal inhibitory concentrations, C. Albicans Without serum
  MIC: 3.125 µM (≈ 5.15 µg/mL)
E. coli D21; D21, pH 5.5
  Minimal inhibitory concentrations, E. Coli D21: 25 µM (≈ 41.2 µg/mL)
E. coli D21; D21, pH 7.4
  Minimal inhibitory concentrations, E. Coli D21: 25 µM (≈ 41.2 µg/mL)
[6]; ATCC 25922, pH 5.5
  Minimal inhibitory concentrations, E. Coli ATCC 25922: 50 µM (≈ 82.4 µg/mL)
[6]; ATCC 25922, pH 7.4
  Minimal inhibitory concentrations, E. Coli ATCC 25922: 75 µM (≈ 124 µg/mL)
[7]; ATCC 19606, pH 5.5
  Minimal inhibitory concentrations, A. baumannii ATCC 19606: 25 µM (≈ 41.2 µg/mL)
[7]; ATCC 19606, pH 7.4
  Minimal inhibitory concentrations, A. baumannii ATCC 19606: 25 µM (≈ 41.2 µg/mL)
E. coli ATCC 35218
  Minimal Inhibitory Concentration, E. coli ATCC 35218: 25 µM
[8]; ATCC 27853, pH 5.5
  Minimal inhibitory concentrations, P. Aeruginosa ATCC 27853: 12.5 µM (≈ 20.6 µg/mL)
[8]; ATCC 27853, pH 7.4
  Minimal Inhibitory Concentration, P. aeruginosa ATCC 27853: 25 µM
  Minimal inhibitory concentrations, P. Aeruginosa ATCC 27853: 25 µM (≈ 41.2 µg/mL)
[9]; ATCC 6538, pH 5.5
  Minimal inhibitory concentrations, S. aureus II ATCC 6538P: >100 µM
[9]; ATCC 6538, pH 7.4
  Minimal Inhibitory Concentration, S. aureus ATCC 6538P: 12.5 µM
  Minimal inhibitory concentrations, S. aureus II ATCC 6538P: 3.125 µM (≈ 5.15 µg/mL)
E. aerogenes ATCC 35029
  Minimal Inhibitory Concentration, E. aerogenes ATCC 35029: 50 µM

## Gentamycin [reference compound]
E. coli D21; [14]
  Minimal Inhibitory Concentration, E. coli-D21: 1.56 µM
E. coli D21; Table 6, pH 7.4
  Minimal inhibitory concentrations, E. Coli D21: 12.5 µM
E. coli D21; Table 7, pH 5.5
  Minimal inhibitory concentrations, E. Coli D21: 12.5 µM
[6]; Table 6, pH 7.4
  Minimal inhibitory concentrations, E. Coli ATCC 25922: 6.25 µM
[6]; Table 7, pH 5.5
  Minimal inhibitory concentrations, E. Coli ATCC 25922: 12.5 µM
[7]; [14]
  Minimal Inhibitory Concentration, A. baumannii ATCC 19606: 3.12 µM
[7]; Table 6, pH 7.4
  Minimal inhibitory concentrations, A. baumannii ATCC 19606: 12.5 µM
[7]; Table 7, pH 5.5
  Minimal inhibitory concentrations, A. baumannii ATCC 19606: 12.5 µM
[8]; [14]
  Minimal Inhibitory Concentration, P. aeruginosa ATCC 27853: 0.78 µM
[8]; Table 6, pH 7.4
  Minimal inhibitory concentrations, P. Aeruginosa ATCC 27853: 12.5 µM
[8]; Table 7, pH 5.5
  Minimal inhibitory concentrations, P. Aeruginosa ATCC 27853: 12.5 µM
[9]; [14]
  Minimal Inhibitory Concentration, S. aureus ATCC 6538P: 6.25 µM
[9]; Table 6, pH 7.4
  Minimal inhibitory concentrations, S. aureus II ATCC 6538P: 12.5 µM
[9]; Table 7, pH 5.5
  Minimal inhibitory concentrations, S. aureus II ATCC 6538P: 25 µM
M. laleus
  Minimal Inhibitory Concentration, M. laleus: 0.78 µM

## CCCCCCCCCCCCCCCC(=O)N[C@@H](CCCCN)C(=O)NCC(=O)NCC(=O)N[C@H](CCCCN)C(N)=O [PA-KGGK, Palmitoyl-Lys-Gly-Gly-D-Lys-NH2] (Palmitoyl-KGG[dK]-NH2)
[1]
  MIC: 1.56 µM (≈ 0.976 µg/mL)
[3]; [15]
  MIC: 6.25 µM (≈ 3.91 µg/mL)
[5]; [16]
  MIC: 12.5 µM (≈ 7.82 µg/mL)
E. coli D21; D21, pH 7.4
  Minimal Inhibitory Concentration, E. coli-D21: 25 µM
[8]; ATCC 27853, pH 7.4
  Minimal Inhibitory Concentration, P. aeruginosa ATCC 27853: 12.5 µM
[9]; ATCC 6538, pH 7.4
  Minimal Inhibitory Concentration, S. aureus ATCC 6538P: 50 µM
M. laleus
  Minimal Inhibitory Concentration, M. laleus: 3.12 µM

## CCCCCCCCCCCCCCCC(=O)N[C@@H](CCCCN)C(=O)N[C@H](CCCCN)C(N)=O [PA-KK, Palmitoyl-Lys-D-Lys-NH2]
[1]
  MIC: 2.5 µM (≈ 1.28 µg/mL)
[3]; [15]
  MIC: 6.25 µM (≈ 3.2 µg/mL)
[5]; [16]
  MIC: 12.5 µM (≈ 6.4 µg/mL)
E. coli D21; D21, pH 7.4
  Minimal Inhibitory Concentration, E. coli-D21: 6.25 µM
[7]; ATCC 19606, pH 7.4
  Minimal Inhibitory Concentration, A. baumannii ATCC 19606: 100 µM
[8]; ATCC 27853, pH 7.4
  Minimal Inhibitory Concentration, P. aeruginosa ATCC 27853: 100 µM
[9]; ATCC 6538, pH 7.4
  Minimal Inhibitory Concentration, S. aureus ATCC 6538P: 6.25 µM
M. laleus
  Minimal Inhibitory Concentration, M. laleus: 3.12 µM

## CCCCCCCCCCCCCCCC(=O)N[C@@H](CCCCN)C(=O)N[C@@H](CC(C)C)C(=O)N[C@H](CC(C)C)C(=O)N[C@@H](CCCCN)C(N)=O [PA-KLLK, Palmitoyl-Lys-Leu-D-Leu-Lys-NH2] (Palmitoyl-KL[dL]K-NH2)
[1]
  MIC: 1.56 µM (≈ 1.15 µg/mL)
[3]; [15]
  MIC: 3.125 µM (≈ 2.31 µg/mL)
[5]; [16]
  MIC: 6.25 µM (≈ 4.61 µg/mL)
E. coli D21; D21, pH 7.4
  Minimal Inhibitory Concentration, E. coli-D21: 100 µM
[8]; ATCC 27853, pH 7.4
  Minimal Inhibitory Concentration, P. aeruginosa ATCC 27853: 100 µM
[9]; ATCC 6538, pH 7.4
  Minimal Inhibitory Concentration, S. aureus ATCC 6538P: 3.12 µM
M. laleus
  Minimal Inhibitory Concentration, M. laleus: 3.12 µM

## CCCCCCCCCCCCCC(=O)N[C@@H](CCCCN)C(=O)NCC(=O)NCC(=O)NCC(=O)N[C@@H](CCCCN)C(=O)NCC(=O)NCC(=O)NCC(=O)N[C@@H](CCCCN)C(=O)NCC(=O)NCC(=O)N[C@@H](CCCCN)C(N)=O [lipopeptide 3, (CH3—(CH2)12—CO—)-Lys-Gly-Gly-Gly-Lys-Gly-Gly-Gly-Lys-Gly-Gly-Lys-NH2] (Myristoyl-KGGGKGGGKGGK-NH2)
[3]; ATCC 26430, pH 7.4
  Minimal Inhibitory Concentration, A. fumigatus ATCC 26430: 6.25 µM
[4]; ATCC 66031, pH 7.4
  Minimal Inhibitory Concentration, C. neoformans ATCC 66031: 3.125 µM
[5]; ATCC 10231, pH 7.4
  Minimal Inhibitory Concentration, C. albicans ATCC 10231: 3.125 µM
[6]; ATCC 25922, pH 7.4
  Minimal Inhibitory Concentration, E. coli: 6.25 µM
[7]; ATCC 19606, pH 7.4
  Minimal Inhibitory Concentration, A. Baumaannii: 12.5 µM
[10]
  Minimal Inhibitory Concentration, S. aureus (MRSA): 6.25 µM
[8]; ATCC 27853, pH 7.4
  Minimal Inhibitory Concentration, P. Aeruginosa: 6.25 µM
[11]
  Minimal Inhibitory Concentration, E. faecium (VRE): 12.5 µM
[9]; ATCC 6538, pH 7.4
  Minimal Inhibitory Concentration, S. aureus: 6.25 µM
[12]
  Minimal Inhibitory Concentration, E. faecalis: 6.25 µM
[13]
  Minimal Inhibitory Concentration, E. cloacae: 6.25 µM

Source: patent US8445636B2, “Antimicrobial and anticancer lipopeptides” (Yeda Research & Development Co. Ltd., priority 2003, dated 2013)
